{"source": "paper PMC10046037", "about": "“GABRG2 Variants Associated with Febrile Seizures” (Biomolecules, 2023)", "key": {"[1]": {"biological_target": "T1, α1β3γ2 GABAA receptor, wild-type (WT) γ2 subunit (Homo sapiens, UniProt P14867+P28472)", "T1 construct": "expressed in transfected cells; host or cells: HEK293T", "T1 sequence (P18507 40-475 partner, one chain of several)": "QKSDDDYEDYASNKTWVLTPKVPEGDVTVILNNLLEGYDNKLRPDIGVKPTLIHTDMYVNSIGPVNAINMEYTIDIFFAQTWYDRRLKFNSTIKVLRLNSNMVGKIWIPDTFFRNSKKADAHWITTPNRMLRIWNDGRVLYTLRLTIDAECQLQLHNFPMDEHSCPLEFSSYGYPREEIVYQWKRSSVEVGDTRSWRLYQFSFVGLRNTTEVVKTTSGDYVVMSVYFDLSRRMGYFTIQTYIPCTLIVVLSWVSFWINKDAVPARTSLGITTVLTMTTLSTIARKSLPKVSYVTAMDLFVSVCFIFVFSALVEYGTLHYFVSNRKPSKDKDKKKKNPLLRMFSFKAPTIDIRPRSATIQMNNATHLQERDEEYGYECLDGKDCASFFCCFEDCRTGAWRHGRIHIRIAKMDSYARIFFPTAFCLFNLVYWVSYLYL", "experiment": "Automated patch clamp of GABA-elicited currents (SyncroPatch 384PE), WT receptor", "type": "cell-based", "settings": "mean", "experimental": "(§1) The coding sequences of human α1 (GABRA1, NM_000806), β3 (GABRB3, NM_021912), and γ2 (GABRG2, NM_198904.2) GABAAR subunits were subcloned into the pcDNA3.1 expression vectors (Invitrogen, Waltham, MA, USA).\n(§2) HEK293T cells (ATCC, CRL-11268) were cultured at 37 °C in a humidified 5% CO2 incubator and maintained in Dulbecco’s modified Eagle’s medium (Invitrogen) supplemented with 10% fetal bovine serum (Life Technologies, Carlsbad, CA, USA), and 100 IU/mL of penicillin/streptomycin (Life Technologies). For the expression experiments, 4 × 10^5 cells were transfected using polyethylenimine (PEI) reagent (40 kD, Polysciences, Warrington, PA, USA) at a DNA: to transfection reagent ratio of 1:2.5 and harvested 36 h after transfection. To express WT and variant α1β3γ2 receptors, a total of 3 µg of α1, β3, and γ2 (WT or mutant) subunit cDNAs were transfected at a ratio of 1:1:1 into 60 mm culture dishes. For the mock-transfected condition, an empty pcDNA3.1 vector was added for a final cDNA transfection amount of 3 μg. For the electrophysiology experiments, 2.5 × 10^5 cells were plated in 100 mm culture dishes and transfected after 24 h with 3 μg of cDNA of each α1, β3, γ2 (wild-type or mutant) subunit, using X-tremeGENE HP DNA transfection Reagent (Roche Diagnostics, Basel, Switzerland), following the manufacturer’s protocol. Recordings were obtained forty-eight hours after transfection.\n(§3) Whole-cell patch clamp recordings were conducted according to the manufacturer’s standard procedure for the SyncroPatch 384 [31]. Whole-cell voltage-clamp recordings were performed at room temperature on HEK293T cells 48 h after transfection with GABAAR subunits, using the SyncroPatch 384PE (Nanion Technologies, Munich, Germany). Cells, at a concentration of 400,000 cells/mL, were harvested in suspension in external solution containing 140 mM of NaCl, 2 mM of CaCl2, 4 mM of KCl, 1 mM of MgCl2, 5 mM of glucose, and 10 mM of HEPES (pH 7.4 with NaOH, 298 mOsm). The cells were loaded in a multi-hole (4 holes per well) 384-well Nanion patch clamp (NPC) chip with a thick borosilicate glass bottom and an average resistance pore size of […]. Built-in electrophysiological protocols were used, and the data were digitized using PatchControl 384 (Nanion Technologies) application. Using PatchControl 384, electrophysiological parameters, such as seal resistance, capacitance, and series resistance, were determined for each well after the application of a test pulse, and subsequently monitored over time. […] The currents were normalized to the maximal response of each well, and the concentration–response curves were calculated from single-point additions. The EC50 values for each variant or wild-type receptor were calculated across multiple wells for each experimental condition."}, "[2]": {"biological_target": "T2, α1β3γ2 GABAA receptor, γ2W162X variant (Homo sapiens, UniProt P14867+P28472)", "T2 construct": "expressed in transfected cells; host or cells: HEK293T", "T2 sequence (P14867 28-456)": "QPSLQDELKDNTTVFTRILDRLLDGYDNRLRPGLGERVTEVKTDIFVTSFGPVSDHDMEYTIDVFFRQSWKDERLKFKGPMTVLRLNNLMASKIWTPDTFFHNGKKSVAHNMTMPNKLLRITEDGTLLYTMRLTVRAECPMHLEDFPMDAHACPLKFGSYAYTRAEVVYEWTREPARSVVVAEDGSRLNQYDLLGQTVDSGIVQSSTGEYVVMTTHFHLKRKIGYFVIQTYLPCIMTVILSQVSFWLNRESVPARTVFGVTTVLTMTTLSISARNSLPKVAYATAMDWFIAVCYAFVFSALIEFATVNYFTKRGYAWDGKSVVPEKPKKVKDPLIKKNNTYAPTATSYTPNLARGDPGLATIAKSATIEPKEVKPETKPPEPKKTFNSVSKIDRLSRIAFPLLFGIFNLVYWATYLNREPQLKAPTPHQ", "T2 sequence (P28472 1-473 isoform P28472-2)": "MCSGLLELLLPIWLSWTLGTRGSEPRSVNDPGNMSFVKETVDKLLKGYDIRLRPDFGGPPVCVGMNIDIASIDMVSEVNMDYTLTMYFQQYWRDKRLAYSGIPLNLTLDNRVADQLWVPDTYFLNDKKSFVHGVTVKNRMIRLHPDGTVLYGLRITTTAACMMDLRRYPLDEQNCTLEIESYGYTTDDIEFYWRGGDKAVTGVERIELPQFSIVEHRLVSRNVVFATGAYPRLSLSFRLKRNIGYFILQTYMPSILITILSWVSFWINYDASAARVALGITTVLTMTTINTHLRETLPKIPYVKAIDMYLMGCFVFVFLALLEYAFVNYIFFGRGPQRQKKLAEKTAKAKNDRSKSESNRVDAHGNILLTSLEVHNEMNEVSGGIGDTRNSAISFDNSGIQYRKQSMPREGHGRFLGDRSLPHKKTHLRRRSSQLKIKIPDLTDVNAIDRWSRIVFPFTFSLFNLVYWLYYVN", "experiment": "Automated patch clamp of GABA-elicited currents (SyncroPatch 384PE), γ2W162X", "type": "cell-based", "settings": "mean", "experimental": "as §1, §2, §3"}, "[3]": {"settings": "1 mM GABA for 5 ms, HEK293T, -80 mV"}, "[4]": {"settings": "10–90% rise time, 1 mM GABA for 5 ms, HEK293T"}}, "data": [{"smiles": "NCCCC(=O)O", "note": "[GABA, γ-aminobutyric acid]", "values": [{"measurement": "Deactivation", "setting": "[1]; [3]", "result": 199.9, "unit": "ms"}, {"measurement": "IMAX (maximal GABA-evoked peak current)", "setting": "[1]; 1 mM GABA for 5 ms, HEK293T", "result": 2.00, "unit": "nA"}, {"measurement": "IMAX variant/IMAX WT", "setting": "[1]; 1 mM GABA", "result": 100.00, "unit": "%"}, {"measurement": "Rise Time", "setting": "[1]; [4]", "result": 13.67, "unit": "ms"}, {"measurement": "Deactivation", "setting": "[2]; [3]", "result": 533.8, "unit": "ms"}, {"measurement": "IMAX (maximal GABA-evoked peak current)", "setting": "[2]; 1 mM GABA for 5 ms, HEK293T", "result": 0.48, "unit": "nA"}, {"measurement": "IMAX variant/IMAX WT", "setting": "[2]; 1 mM GABA", "result": 24.07, "unit": "%"}, {"measurement": "Rise Time", "setting": "[2]; [4]", "result": 23.51, "unit": "ms"}]}]}
